Counter-ions that a name gives are not always drawn.

This is an account of results in US20110270151A1, “IMAGE-GUIDED ENERGY DEPOSITION FOR TARGETED DRUG DELIVERY” (The Methodist Hospital Research Institute, priority 2008, published 2011).

The conditions of data set [1]: basic or acidic aqueous solution; cited from earlier work.
Data set [2] deals with Hsp70. Conditions: cited from earlier work.
Data set [3] has as its target Hsp70. Conditions: cited from earlier work. This is another data set of the same source.
For data set [4], the target named is T1, HSP70 (Mus musculus, UniProt Q61696).
T1 construct: imaging an inducible target using an endogenous protein involved in stress response; from tissue; host or cells: heated right hind limb of live mice
T1 sequence (Q61696 whole entry): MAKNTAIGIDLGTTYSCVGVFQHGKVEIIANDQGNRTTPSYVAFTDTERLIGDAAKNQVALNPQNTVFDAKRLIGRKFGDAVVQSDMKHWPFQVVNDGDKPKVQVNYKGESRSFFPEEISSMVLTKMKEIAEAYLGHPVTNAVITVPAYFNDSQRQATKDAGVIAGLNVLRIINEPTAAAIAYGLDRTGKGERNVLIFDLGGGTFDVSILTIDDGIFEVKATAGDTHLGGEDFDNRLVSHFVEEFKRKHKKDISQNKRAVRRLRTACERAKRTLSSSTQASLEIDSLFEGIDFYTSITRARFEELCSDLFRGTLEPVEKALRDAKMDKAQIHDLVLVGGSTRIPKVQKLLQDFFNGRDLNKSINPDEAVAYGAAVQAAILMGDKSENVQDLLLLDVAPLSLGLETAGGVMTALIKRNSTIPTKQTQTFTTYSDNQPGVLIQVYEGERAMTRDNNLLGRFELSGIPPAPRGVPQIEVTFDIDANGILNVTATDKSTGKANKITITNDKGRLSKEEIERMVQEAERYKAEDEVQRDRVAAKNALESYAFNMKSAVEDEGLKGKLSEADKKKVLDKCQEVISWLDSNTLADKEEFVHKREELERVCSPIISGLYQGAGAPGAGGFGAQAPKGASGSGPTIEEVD
Kind of data set: in vivo analysis of FAM-labeled bifunctional molecule after hind limb heating. Conditions: 20 nmol i.v., about 4 hours post-injection (8 hrs post hyperthermia), dermis dissected. Further details: species or system mice. The method, then:
As a control, 6-carboxyfluorescein (6-FAM) was administered at the same dose (20 nmol) in the same manner. Due to the high intrinsic autofluorescence of the dermis, experimental mice were sacrificed, the dermis dissected, and imaged on a small animal dedicated optical system (Xenogen/Caliper IVIS-200) using the appropriate excitation/emission filter set.

As usually defined, the Kd is the concentration at which binding is half-saturated. `N=C(N)NCCCCCCC(=O)N[C@@H](O)C(=O)NCCCCNCCCN` (racemic) [Compound 15-DSG, (±)7-[(aminoiminomethyl)amino]-N-[2-[[4-[(3-aminopropyl)amino]butyl]amino]-1-hydroxy-2-oxoethyl]heptanamide trihydrochloride]: in data set [1], the hydrolytic stability result is “hydrolyses gradually”. For the same compound, in data set [2], the “effect on Hsp70 steady state ATPase activity” value is reported as “stimulates”. In addition, the Kd in data set [3] is 4 µM.

For `O=C(O)c1ccc2c(c1)C1(OC2=O)c2ccc(O)cc2Oc2cc(O)ccc21` [Compound 6-FAM, 6-carboxyfluorescein], the “fluorescence in heated limb tissue” value in data set [4] is “minimal level of fluorescence”.
